Columns and labels:
participants with SSc-RP [1] = experiment: SHAQ - Visual Analog Scale - Breathing Problems; type: in vivo, human; parameters: Visual Analog Scale-Breathing Problems, In Clinic Visit (Day 12), Mean / Visual Analog Scale-Breathing Problems, In Clinic Visit (Day 12), Median / SHAQ Visual Analogue Scale - Breathing Problems, In-Clinic Visit (Day 12), Mean / SHAQ Visual Analogue Scale - Breathing Problems, In-Clinic Visit (Day 12), Median / SHAQ Visual Analogue Scale - Breathing Problems, Change from Baseline, Median: scale not given here
Description: The standard, validated, patient reported outcome measures tool for SSc patients, the Scleroderma Health Assessment Questionnaire (SHAQ), will be used to assess the participant qualify of life. Details are attached in the Appendix. The participant quality of life will be scored, and a disability index calculated for each questionnaire completed by the patient at Screening and each in-clinic visit. The absolute change in participant quality of life from baseline to the end of each dosing period will be calculated similar to frequency data as before.
(§1) The standard, validated, patient reported outcome measures tool for SSc patients, the SHAQ, was collected at the time points specified in the study schedules (FIG. 2 and FIGS. 4A and 4B) to assess the participant's quality of life. The SHAQ included a Raynaud's VAS that will also be reported separately.

participants with SSc-RP [2] = experiment: SHAQ - Visual Analog Scale - Raynaud's; type: in vivo, human
Description: The SHAQ includes a Raynaud's VAS, which will be reported at screening and each in-clinic visit. The absolute change in Raynaud-VAS, assessed by the participants response to the SHAQ question ‘In the past 7 days, how much have your Raynaud's interfered with your daily activities?’ at baseline and the end of each dosing period will be calculated similar to frequency data as before.
as §1

[3] = Modified ITT Population-Part A, dose cilnidipine 10 mg, tadalafil 5 mg, alone or combined as labelled
[4] = Tadalafil 5 mg, SSc patients, PP, Part A

CN1CC(=O)N2[C@H](c3ccc4c(c3)OCO4)c3[nH]c4ccccc4c3C[C@@H]2C1=O [Tadalafil]
Visual Analog Scale-Breathing Problems, Change from Baseline, Mean (participants with SSc-RP [1]; Modified ITT Population-Part A, Day 12, dose cilnidipine 10 mg, tadalafil 5 mg, alone or combined as labelled): 0.500 | Visual Analog Scale-Breathing Problems, In Clinic Visit (Day 12), Mean (participants with SSc-RP [1]; [3]): 4.300 | Visual Analog Scale-Breathing Problems, In Clinic Visit (Day 12), Median (participants with SSc-RP [1]; [3]): 4.000 | SHAQ VAS Breathing Problems, Change from Baseline, Max (participants with SSc-RP [1]; [4]): 2.80 | SHAQ VAS Breathing Problems, Change from Baseline, Mean (participants with SSc-RP [1]; [4]): 0.500 | SHAQ VAS Breathing Problems, Change from Baseline, Median (participants with SSc-RP [1]; [4]): 1.050 | SHAQ VAS Breathing Problems, Change from Baseline, Min (participants with SSc-RP [1]; [4]): −2.90, | SHAQ VAS Breathing Problems, Change from Baseline, Q1 (participants with SSc-RP [1]; [4]): −1.450, | SHAQ VAS Breathing Problems, Change from Baseline, Q3 (participants with SSc-RP [1]; [4]): 2.450 | SHAQ VAS Breathing Problems, Day 12, Max (participants with SSc-RP [1]; [4]): 9.20 | SHAQ VAS Breathing Problems, Day 12, Mean (participants with SSc-RP [1]; [4]): 4.300 | SHAQ VAS Breathing Problems, Day 12, Median (participants with SSc-RP [1]; [4]): 4.000 | SHAQ VAS Breathing Problems, Day 12, Min (participants with SSc-RP [1]; [4]): 0.00, | SHAQ VAS Breathing Problems, Day 12, Q1 (participants with SSc-RP [1]; [4]): 0.100, | SHAQ VAS Breathing Problems, Day 12, Q3 (participants with SSc-RP [1]; [4]): 8.500 | SHAQ VAS Breathing Problems, Percent Change from Baseline, Max (participants with SSc-RP [1]; [4]): 56.0 | SHAQ VAS Breathing Problems, Percent Change from Baseline, Mean (participants with SSc-RP [1]; [4]): −2.66 | SHAQ VAS Breathing Problems, Percent Change from Baseline, Median (participants with SSc-RP [1]; [4]): 29.58 | SHAQ VAS Breathing Problems, Percent Change from Baseline, Min (participants with SSc-RP [1]; [4]): −93.5, | SHAQ VAS Breathing Problems, Percent Change from Baseline, Q1 (participants with SSc-RP [1]; [4]): −93.55, | SHAQ VAS Breathing Problems, Percent Change from Baseline, Q3 (participants with SSc-RP [1]; [4]): 56.00 | SHAQ Visual Analogue Scale - Raynaud's, Change from Baseline, Median (participants with SSc-RP [2]; Tadalafil 5 mg (N = 5), Day 12, PP Population, Part A): −0.500 | VAS Raynaud's Change from Baseline Max (participants with SSc-RP [2]; tadalafil 5 mg): −0.10 | VAS Raynaud's Change from Baseline Mean (participants with SSc-RP [2]; tadalafil 5 mg): −0.825 | VAS Raynaud's Change from Baseline Median (participants with SSc-RP [2]; tadalafil 5 mg): −0.500 | VAS Raynaud's Change from Baseline Min (participants with SSc-RP [2]; tadalafil 5 mg): −2.20 | VAS Raynaud's Change from Baseline Q1 (participants with SSc-RP [2]; tadalafil 5 mg): −1.500 | VAS Raynaud's Change from Baseline Q3 (participants with SSc-RP [2]; tadalafil 5 mg): −0.150 | VAS Raynaud's Day 12 Max (participants with SSc-RP [2]; tadalafil 5 mg): 9.20 | VAS Raynaud's Day 12 Median (participants with SSc-RP [2]; tadalafil 5 mg): 5.200 | VAS Raynaud's Day 12 Min (participants with SSc-RP [2]; tadalafil 5 mg): 0.20 | VAS Raynaud's Day 12 Q1 (participants with SSc-RP [2]; tadalafil 5 mg): 2.200 | VAS Raynaud's Day 12 Q3 (participants with SSc-RP [2]; tadalafil 5 mg): 7.700 | VAS Raynaud's Percent Change from Baseline Max (participants with SSc-RP [2]; tadalafil 5 mg): −3.1% | VAS Raynaud's Percent Change from Baseline Mean (participants with SSc-RP [2]; tadalafil 5 mg): −19.71% | VAS Raynaud's Percent Change from Baseline Median (participants with SSc-RP [2]; tadalafil 5 mg): −20.67% | VAS Raynaud's Percent Change from Baseline Min (participants with SSc-RP [2]; tadalafil 5 mg): −34.4% | VAS Raynaud's Percent Change from Baseline Q1 (participants with SSc-RP [2]; tadalafil 5 mg): −33.85% | VAS Raynaud's Percent Change from Baseline Q3 (participants with SSc-RP [2]; tadalafil 5 mg): −5.56%

Reference: patent publication US20240358692A1, “TREATMENT OF SCLERODERMA” (Aisa Pharma, Inc., priority 2023, published 2024)
